Assay results published in US7138361B2, “Herbicidal heterocycles” (E. I. du Pont de Nemours and Company, priority 2000, dated 2006).

Key:
Assay type in all cases: in vivo
[1] = tested on: Surinam grass (Brachiaria decumbens); experiment: Test C postemergence
Summary of the method: (§1)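 Visual 0–100 rating vs controls (0 = no effect, 100 = complete control) at 12–14 d, greenhouse. Compounds in non-phytotoxic solvent + surfactant; pre: sprayed after seeding; post: 1–4-leaf plants, 2–18 cm.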

[2] = tested on: bermudagrass (Cynodon dactylon); experiment: Test C postemergence
Summary of the method: as §1

[3] = tested on: chickweed (Stellaria media); experiment: Test C postemergence
Summary of the method: as §1

[4] = tested on: cocklebur (Xanthium strumarium); experiment: Test C postemergence
Summary of the method: as §1

[5] = tested on: common ragweed (Ambrosia elatior); experiment: Test C postemergence
Summary of the method: as §1

corn (Zea mays) = experiment: Test C postemergence
Summary of the method: as §1

[6] = tested on: crabgrass (Digitaria sanguinalis); experiment: Test C postemergence
Summary of the method: as §1

[7] = tested on: giant foxtail (Setaria faberii); experiment: Test C postemergence
Summary of the method: as §1

[8] = tested on: goosegrass (Eleusine indica); experiment: Test C postemergence
Summary of the method: as §1

[9] = tested on: johnsongrass (Sorghum halepense); experiment: Test C postemergence
Summary of the method: as §1

kochia (Kochia scoparia) = experiment: Test C postemergence
Summary of the method: as §1

[10] = tested on: lambsquarters (Chenopodium album); experiment: Test C postemergence
Summary of the method: as §1

[11] = tested on: morningglory (Ipomoea hederacea); experiment: Test C postemergence
Summary of the method: as §1

[12] = tested on: pigweed (Amaranthus retroflexus); experiment: Test C postemergence
Summary of the method: as §1

soybean (Glycine max) = experiment: Test C postemergence
Summary of the method: as §1

[13] = tested on: velvetleaf (Abutilon theophrasti); experiment: Test C postemergence
Summary of the method: as §1

[14] = tested on: woolly cupgrass (Eriochloa villosa); experiment: Test C postemergence
Summary of the method: as §1

[15] = tested on: yellow nutsedge (Cyperus esculentus); experiment: Test C postemergence
Summary of the method: as §1

rice (Oryza saliva) = experiment: Test C flooded paddy test; settings: for Rice plant response rating: Flooded Paddy, Rate 500 g/ha, scale 0 to 100, 0 no effect, 100 complete control; for Plant response rating, Rice / Plant response rating (scale 0 to 100), Rice: flooded paddy test; for Plant response rating, Rice: scale 0 to 100 (0 no effect, 100 complete control); for Plant response rating (scale 0 to 100), Rice: Rate 62 g/ha, visually evaluated after 12 to 14 days, 0 = no effect, 100 = complete control
Summary of the method: (§2)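 2-leaf-stage plants, flooded paddy; treated; greenhouse 12–14 days; compared with controls by eye; rated 0–100 (0 none, 100 complete control).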

[16] = tested on: smallflower flatsedge (Cyperus difformis); experiment: Test C flooded paddy test; settings: for Flatsedge plant response rating: Flooded Paddy, Rate 500 g/ha, scale 0 to 100, 0 no effect, 100 complete control; for Plant response rating, Flatsedge / Plant response rating (scale 0 to 100), Flatsedge: flooded paddy test; for Plant response rating, Flatsedge: scale 0 to 100 (0 no effect, 100 complete control); for Plant response rating (scale 0 to 100), Flatsedge: Rate 62 g/ha, visually evaluated after 12 to 14 days, 0 = no effect, 100 = complete control
Summary of the method: as §2

[17] = Rate 125 g/ha, scale 0 to 100, 0 no effect, 100 complete control
[18] = Rate 250 g/ha, scale 0 to 100 (0 no effect, 100 complete control)
[19] = Rate 500 g/ha, scale 0 to 100 (0 no effect, 100 complete control)

Structure (SMILES): CCC(C)c1ccn(C2CCN(c3ccc(Br)c(OC)c3)C2=O)n1 (centres unmarked) [Compound 142]
- Plant response rating, Surinam grass ([1]; Rate 62 g/ha, scale 0 to 100): 20
- Plant response rating, Surinam grass [1, 17]: 30
- Plant response rating, Surinam grass [1, 18]: 30
- Plant response rating, Surinam grass [1, 19]: 30
- Plant response rating, Bermudagrass ([2]; Rate 62 g/ha, scale 0 to 100): 30
- Plant response rating, Bermudagrass [2, 17]: 40
- Plant response rating, Bermudagrass [2, 18]: 60
- Plant response rating, Bermudagrass [2, 19]: 80
- Plant response rating, Chickweed [3, 17]: 100
- Plant response rating, Cocklebur ([4]; Rate 62 g/ha, scale 0 to 100): 30
- Plant response rating, Cocklebur [4, 18]: 90
- Plant response rating, Cocklebur [4, 19]: 90
- Plant response rating, Ragweed, Common ([5]; Rate 62 g/ha, scale 0 to 100): 50
- Plant response rating, Ragweed, Common [5, 18]: 90
- Plant response rating, Ragweed, Common [5, 19]: 100
- Plant response rating, Corn (corn (Zea mays); Rate 62 g/ha, scale 0 to 100): 0
- Plant response rating, Corn (corn (Zea mays); [18]): 0
- Plant response rating, Corn (corn (Zea mays); [19]): 20
- Plant response rating, Corn (corn (Zea mays); scale 0 to 100): 0
- Plant response rating, Crabgrass ([6]; Rate 62 g/ha, scale 0 to 100): 40
- Plant response rating, Crabgrass [6, 18]: 70
- Plant response rating, Crabgrass [6, 19]: 70
- Plant response rating, Foxtail, Giant ([7]; Rate 62 g/ha, scale 0 to 100): 90
- Plant response rating, Foxtail, Giant [7, 18]: 90
- Plant response rating, Foxtail, Giant [7, 19]: 90
- Plant response rating, Goosegrass ([8]; Rate 62 g/ha, scale 0 to 100): 30
- Plant response rating, Goosegrass [8, 18]: 50
- Plant response rating, Goosegrass [8, 19]: 70
- Plant response rating, Johnsongrass ([9]; Rate 62 g/ha, scale 0 to 100): 20
- Plant response rating, Johnsongrass [9, 18]: 30
- Plant response rating, Johnsongrass [9, 19]: 30
- Plant response rating, Johnsongrass ([9]; rate not given, scale 0 to 100): 30
- Plant response rating, Kochia (kochia (Kochia scoparia); Rate 62 g/ha, scale 0 to 100): 40
- Plant response rating, Kochia (kochia (Kochia scoparia); [18]): 90
- Plant response rating, Kochia (kochia (Kochia scoparia); [19]): 90
- Plant response rating, Lambsquarters ([10]; Rate 62 g/ha, scale 0 to 100): 80
- Plant response rating, Lambsquarters [10, 18]: 100
- Plant response rating, Lambsquarters [10, 19]: 100
- Plant response rating, Morningglory ([11]; Rate 62 g/ha, scale 0 to 100): 20
- Plant response rating, Morningglory [11, 18]: 100
- Plant response rating, Morningglory [11, 19]: 100
- Plant response rating, Pigweed ([12]; Rate 62 g/ha, scale 0 to 100): 80
- Plant response rating, Pigweed [12, 18]: 90
- Plant response rating, Pigweed [12, 19]: 90
- Plant response rating, Soybean (soybean (Glycine max); Rate 62 g/ha, scale 0 to 100): 60
- Plant response rating, Soybean (soybean (Glycine max); [18]): 90
- Plant response rating, Soybean (soybean (Glycine max); [19]): 90
- Plant response rating, Velvetleaf ([13]; Rate 62 g/ha, scale 0 to 100): 50
- Plant response rating, Velvetleaf [13, 18]: 80
- Plant response rating, Velvetleaf [13, 19]: 80
- Plant response rating, Velvetleaf ([13]; scale 0 to 100): 70
- Plant response rating, Cupgrass, Woolly ([14]; Rate 62 g/ha, scale 0 to 100): 40
- Plant response rating, Cupgrass, Woolly [14, 18]: 50
- Plant response rating, Cupgrass, Woolly [14, 19]: 70
- Plant response rating, Nutsedge ([15]; Rate 62 g/ha, scale 0 to 100): 0
- Plant response rating, Nutsedge [15, 18]: 0
- Plant response rating, Nutsedge [15, 19]: 20
- Rice plant response rating (rice (Oryza saliva)): 55
- Plant response rating, Rice (rice (Oryza saliva); Rate 125 g/ha): 25
- Plant response rating, Rice (rice (Oryza saliva); Rate 250 g/ha): 45
- Plant response rating (scale 0 to 100), Rice (rice (Oryza saliva)): 0
- Flatsedge plant response rating [16]: 95
- Plant response rating, Flatsedge ([16]; Rate 125 g/ha): 95
- Plant response rating, Flatsedge ([16]; Rate 250 g/ha): 95
- Plant response rating (scale 0 to 100), Flatsedge [16]: 95

Structure (SMILES): CCC(CC)c1ccn(C2CCN(c3ccc(Br)c(OC)c3)C2=O)n1 (centres unmarked) [Compound 143]
- Plant response rating, Surinam grass ([1]; Rate 62 g/ha, scale 0 to 100): 20
- Plant response rating, Surinam grass [1, 17]: 20
- Plant response rating, Surinam grass [1, 18]: 50
- Plant response rating, Surinam grass [1, 19]: 70
- Plant response rating, Bermudagrass ([2]; Rate 62 g/ha, scale 0 to 100): 20
- Plant response rating, Bermudagrass [2, 17]: 40
- Plant response rating, Bermudagrass [2, 18]: 70
- Plant response rating, Bermudagrass [2, 19]: 80
- Plant response rating, Chickweed ([3]; Rate 62 g/ha, scale 0 to 100): 100
- Plant response rating, Chickweed [3, 17]: 100
- Plant response rating, Cocklebur ([4]; Rate 62 g/ha, scale 0 to 100): 20
- Plant response rating, Cocklebur [4, 18]: 90
- Plant response rating, Cocklebur [4, 19]: 90
- Plant response rating, Ragweed, Common ([5]; Rate 62 g/ha, scale 0 to 100): 20
- Plant response rating, Ragweed, Common [5, 18]: 90
- Plant response rating, Ragweed, Common [5, 19]: 90
- Plant response rating, Corn (corn (Zea mays); Rate 62 g/ha, scale 0 to 100): 0
- Plant response rating, Corn (corn (Zea mays); [18]): 0
- Plant response rating, Corn (corn (Zea mays); [19]): 30
- Plant response rating, Corn (corn (Zea mays); scale 0 to 100): 0
- Plant response rating, Crabgrass ([6]; Rate 62 g/ha, scale 0 to 100): 40
- Plant response rating, Crabgrass [6, 18]: 70
- Plant response rating, Crabgrass [6, 19]: 70
- Plant response rating, Foxtail, Giant ([7]; Rate 62 g/ha, scale 0 to 100): 30
- Plant response rating, Foxtail, Giant [7, 18]: 80
- Plant response rating, Foxtail, Giant [7, 19]: 90
- Plant response rating, Goosegrass ([8]; Rate 62 g/ha, scale 0 to 100): 30
- Plant response rating, Goosegrass [8, 18]: 60
- Plant response rating, Goosegrass [8, 19]: 70
- Plant response rating, Johnsongrass ([9]; Rate 62 g/ha, scale 0 to 100): 0
- Plant response rating, Johnsongrass [9, 18]: 30
- Plant response rating, Johnsongrass [9, 19]: 30
- Plant response rating, Johnsongrass ([9]; rate not given, scale 0 to 100): 10
- Plant response rating, Kochia (kochia (Kochia scoparia); Rate 62 g/ha, scale 0 to 100): 40
- Plant response rating, Kochia (kochia (Kochia scoparia); [18]): 90
- Plant response rating, Kochia (kochia (Kochia scoparia); [19]): 90
- Plant response rating, Lambsquarters ([10]; Rate 62 g/ha, scale 0 to 100): 90
- Plant response rating, Lambsquarters [10, 18]: 90
- Plant response rating, Lambsquarters [10, 19]: 100
- Plant response rating, Morningglory ([11]; Rate 62 g/ha, scale 0 to 100): 90
- Plant response rating, Morningglory [11, 18]: 100
- Plant response rating, Morningglory [11, 19]: 100
- Plant response rating, Pigweed ([12]; Rate 62 g/ha, scale 0 to 100): 70
- Plant response rating, Pigweed [12, 18]: 70
- Plant response rating, Pigweed [12, 19]: 90
- Plant response rating, Soybean (soybean (Glycine max); Rate 62 g/ha, scale 0 to 100): 60
- Plant response rating, Soybean (soybean (Glycine max); [18]): 100
- Plant response rating, Soybean (soybean (Glycine max); [19]): 100
- Plant response rating, Velvetleaf ([13]; Rate 62 g/ha, scale 0 to 100): 40
- Plant response rating, Velvetleaf [13, 18]: 80
- Plant response rating, Velvetleaf [13, 19]: 90
- Plant response rating, Velvetleaf ([13]; scale 0 to 100): 40
- Plant response rating, Cupgrass, Woolly ([14]; Rate 62 g/ha, scale 0 to 100): 40
- Plant response rating, Cupgrass, Woolly [14, 18]: 60
- Plant response rating, Cupgrass, Woolly [14, 19]: 70
- Plant response rating, Nutsedge ([15]; Rate 62 g/ha, scale 0 to 100): 0
- Plant response rating, Nutsedge [15, 18]: 0
- Plant response rating, Nutsedge [15, 19]: 0
- Rice plant response rating (rice (Oryza saliva)): 60
- Plant response rating, Rice (rice (Oryza saliva); Rate 125 g/ha): 30
- Plant response rating, Rice (rice (Oryza saliva); Rate 250 g/ha): 50
- Plant response rating (scale 0 to 100), Rice (rice (Oryza saliva)): 0
- Flatsedge plant response rating [16]: 100
- Plant response rating, Flatsedge ([16]; Rate 125 g/ha): 95
- Plant response rating, Flatsedge ([16]; Rate 250 g/ha): 95
- Plant response rating (scale 0 to 100), Flatsedge [16]: 90
